# Test results published in patent US11046699B2, “Pyrazolo-pyrimidin-amino-cycloalkyl compounds and their therapeutic uses” (RAPT THERAPEUTICS, INC., priority 2018, dated 2021).
# Counter-ions that a name gives are not always drawn. Like-named read-outs stand apart in the source and are kept apart here.
# Biological target: GCN2 (Homo sapiens, UniProt Q9P2K8)
# Assay: GCN2 enzymatic endpoint assay: phosphorylation of GFP-eIF2α measured by TR-FRET (Lanthascreen)
# Assay type: biochemical
# Method in brief: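 Reaction started with 2 μM ATP and 80 nM GFP-labelled eIF2α substrate at room temperature, stopped with EDTA after 90 minutes. Phospho-eIF2α detected by terbium-labelled antibody TR-FRET; activity taken as 520 nm (fluorescein) to 495 nm (terbium) emission ratio.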
# [1] = tested as described in Example 77, compound and/or hydrochloride, dihydrochloride or trifluoroacetic acid salt, read-out: IC 50 Activity
# Chain of GCN2 (Q9P2K8 whole entry): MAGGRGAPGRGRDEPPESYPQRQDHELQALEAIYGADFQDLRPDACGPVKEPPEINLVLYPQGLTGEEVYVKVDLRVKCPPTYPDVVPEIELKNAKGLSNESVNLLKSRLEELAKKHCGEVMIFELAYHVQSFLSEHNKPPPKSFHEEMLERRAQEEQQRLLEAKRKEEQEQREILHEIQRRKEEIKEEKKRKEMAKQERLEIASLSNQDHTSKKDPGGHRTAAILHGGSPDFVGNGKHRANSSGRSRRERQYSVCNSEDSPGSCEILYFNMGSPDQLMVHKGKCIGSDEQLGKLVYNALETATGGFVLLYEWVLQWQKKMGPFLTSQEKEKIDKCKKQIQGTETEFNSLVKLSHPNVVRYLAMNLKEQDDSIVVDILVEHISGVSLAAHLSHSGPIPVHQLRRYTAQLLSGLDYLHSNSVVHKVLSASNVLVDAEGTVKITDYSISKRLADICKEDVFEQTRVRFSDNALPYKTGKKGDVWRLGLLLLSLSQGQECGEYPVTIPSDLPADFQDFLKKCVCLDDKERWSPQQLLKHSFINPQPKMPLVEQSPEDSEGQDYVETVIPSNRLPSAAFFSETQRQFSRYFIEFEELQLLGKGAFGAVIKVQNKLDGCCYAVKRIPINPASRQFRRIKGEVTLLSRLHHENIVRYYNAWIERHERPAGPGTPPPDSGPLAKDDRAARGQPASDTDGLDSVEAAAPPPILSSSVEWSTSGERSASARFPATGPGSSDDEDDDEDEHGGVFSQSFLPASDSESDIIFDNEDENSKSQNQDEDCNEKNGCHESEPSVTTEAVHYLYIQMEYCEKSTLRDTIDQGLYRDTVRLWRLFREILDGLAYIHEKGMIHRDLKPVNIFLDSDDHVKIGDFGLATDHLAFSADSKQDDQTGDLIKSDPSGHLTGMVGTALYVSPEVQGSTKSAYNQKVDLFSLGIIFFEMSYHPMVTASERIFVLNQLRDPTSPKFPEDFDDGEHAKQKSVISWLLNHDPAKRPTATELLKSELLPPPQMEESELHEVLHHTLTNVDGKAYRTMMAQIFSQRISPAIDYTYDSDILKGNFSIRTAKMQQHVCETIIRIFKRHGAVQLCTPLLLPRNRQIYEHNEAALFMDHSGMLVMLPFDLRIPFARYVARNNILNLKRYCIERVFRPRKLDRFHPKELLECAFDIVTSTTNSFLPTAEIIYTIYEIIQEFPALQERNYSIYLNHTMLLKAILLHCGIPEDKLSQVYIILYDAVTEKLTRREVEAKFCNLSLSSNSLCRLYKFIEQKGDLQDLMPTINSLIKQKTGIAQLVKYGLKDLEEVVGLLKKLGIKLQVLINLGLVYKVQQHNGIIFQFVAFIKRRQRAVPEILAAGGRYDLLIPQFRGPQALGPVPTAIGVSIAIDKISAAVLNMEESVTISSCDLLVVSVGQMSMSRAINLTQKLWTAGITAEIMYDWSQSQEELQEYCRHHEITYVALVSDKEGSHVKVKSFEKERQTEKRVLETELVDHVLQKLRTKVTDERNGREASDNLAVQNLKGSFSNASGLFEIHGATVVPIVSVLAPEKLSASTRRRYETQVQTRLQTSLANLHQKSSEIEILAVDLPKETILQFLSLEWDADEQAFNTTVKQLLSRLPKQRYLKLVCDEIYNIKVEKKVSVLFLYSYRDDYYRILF
IC50 [1],"IC50 (GCN2 biochemical IC50, 4 nM GCN2, 2 μM ATP, 80 nM GFP-eIF2α, 90 min RT, read-out: GCN2 activity)",Structure (SMILES)
< 25 nM,–,"N#CC1CN(C(=O)[C@@H]2CC[C@@H](Nc3ncc4c(Br)nn(-c5cc(F)c6ncccc6c5)c4n3)C2)C1 [1-[(1R,3R)-3-[[3-bromo-1-(8-fluoro-6-quinolyl)pyrazolo[3,4-d]pyrimidin-6-yl]amino]cyclopentanecarbonyl]azetidine-3-carbonitrile]"
25 to 200 nM,–,"CNC(=O)C1(C)CC[C@@H](Nc2ncc3c(Br)nn(-c4cccc(CCCO)c4)c3n2)C1 (stereo partly drawn) [(3R)-3-[[3-bromo-1-[3-(3-hydroxypropyl)phenyl]pyrazolo[3,4-d]pyrimidin-6-yl]amino]-N,1-dimethyl-cyclopentane-carboxamide]"
25 to 200 nM,–,"CNC(=O)[C@]1(C)CC[C@@H](Nc2ncc3c(Br)nn(-c4ccc(OCC#N)cc4)c3n2)C1 [(1R,3R)-3-[[3-bromo-1-[4-(cyanomethoxy)phenyl]pyrazolo[3,4-d]pyrimidin-6-yl]amino]-N,1-dimethyl-cyclopentane-carboxamide]"
25 to 200 nM,–,"Cc1nnc(-c2ccc(-n3nc(Br)c4cnc(N[C@@H]5CC[C@@H](P(C)(C)=O)C5)nc43)cc2CCS(C)(=O)=O)s1 [3-bromo-N-[(1R,3R)-3-dimethylphosphoryl-cyclopentyl]-1-[3-(2-methylsulfonylethyl)-4-(5-methyl-1,3,4-thiadiazol-2-yl)phenyl] pyrazolo[3,4-d]pyrimidin-6-amine]"
200 to 500 nM,–,"O=C([C@@H]1CC[C@@H](Nc2ncc3c(Br)nn(-c4ccc5ncccc5c4)c3n2)C1)N1CCC2(CCCCO2)C1 (stereo partly drawn) [((1R,3R)-3-((3-bromo-1-(quinolin-6-yl)-1H-pyrazolo[3,4-d]pyrimidin-6-yl)amino)cyclopentyl)(6-oxa-2-azaspiro[4.5]decan-2-yl)methanone]"
25 to 200 nM,–,"CNC(=O)[C@]1(C)CC[C@@H](Nc2ncc3c(Br)nn(-c4ccc(C#N)c(OCCOC)c4)c3n2)C1 [(1R,3R)-3-[[3-bromo-1-[4-cyano-3-(2-methoxyethoxy)phenyl]pyrazolo[3,4-d]pyrimidin-6-yl]amino]-N,1-dimethyl-cyclopentanecarboxamide]"
25 to 200 nM,–,"CNC(=O)[C@]1(C)CC[C@@H](Nc2ncc3c(Br)nn(-c4ccc(-n5cccn5)cc4)c3n2)C1 [(1R,3R)-3-[[3-bromo-1-(4-pyrazol-1-ylphenyl)pyrazolo[3,4-d]pyrimidin-6-yl]amino]-N,1-dimethyl-cyclopentane-carboxamide]"
< 25 nM,–,"CNC(=O)[C@]1(C)CC[C@@H](Nc2ncc3c(Br)nn(-c4ccc5ncc(NC(=O)C6CNC6)cc5c4)c3n2)C1 [N-[6-[3-bromo-6-[[(1R,3R)-3-methyl-3-(methylcarbamoyl)cyclopentyl]amino]pyrazolo[3,4-d]pyrimidin-1-yl]-3-quinolyl]azetidine-3-carboxamide]"
–,25 to 200 nM,"CNC(=O)[C@]1(C)CC[C@@H](Nc2ncc3c(Br)nn(-c4ccc(N5CCOCC5)c(C#N)c4)c3n2)C1 [Example 59, (1R,3R)-3-((3-bromo-1-(3-cyano-4-morpholinophenyl)-1H-pyrazolo[3,4-d]pyrimidin-6-yl)amino)-N,1-dimethylcyclopentane-1-carboxamide hydrochloride]"
25 to 200 nM,–,"Cc1nnc(-c2ccc(-n3nc(Br)c4cnc(N[C@@H]5CCC(C)(C(=O)N6C[C@@H](C)O[C@H](C)C6)C5)nc43)cc2)o1 (stereo partly drawn) [[(3R)-3-[[3-bromo-1-[4-(5-methyl-1,3,4-oxadiazol-2-yl)phenyl]pyrazolo[3,4-d]pyrimidin-6-yl]amino]-1-methyl-cyclopentyl]-[(2R,6R)-2,6-dimethylmorpholin-4-yl]methanone]"
25 to 200 nM,–,"Cc1nnc(-c2ccc(-n3nc(Br)c4cnc(N[C@@H]5CC[C@@H](NC(=O)C6CC(C)(O)C6)C5)nc43)cc2)s1 (stereo partly drawn) [N-[(1R,3R)-3-[[3-bromo-1-[4-(5-methyl-1,3,4-thiadiazol-2-yl)phenyl]pyrazolo [3,4-d]pyrimidin-6-yl]amino]cyclopentyl]-3-hydroxy-3-methyl-cyclobutane-carboxamide]"
25 to 200 nM,–,"O=C(N[C@@H]1CCOC1)[C@@H]1CC[C@@H](Nc2ncc3c(Br)nn(-c4ccc5ncccc5c4)c3n2)C1 [(1R,3R)-3-((3-bromo-1-(quinolin-6-yl)-1H-pyrazolo[3,4-d]pyrimidin-6-yl)amino)-N-((R)-tetrahydrofuran-3-yl)cyclopentane-1-carboxamide]"
25 to 200 nM,–,"CNC(=O)[C@]1(C)CC[C@@H](Nc2ncc3c(Br)nn(-c4cc(CCNS(C)(=O)=O)c5ncccc5c4)c3n2)C1 [(1R,3R)-3-[[3-bromo-1-[8-[2-(methane-sulfonamido)ethyl]-6-quinolyl]pyrazolo [3,4-d]pyrimidin-6-yl]amino]-N,1-dimethyl-cyclopentanecarboxamide]"
25 to 200 nM,–,"CNC(=O)[C@]1(C)CC[C@@H](Nc2ncc3c(Br)nn(-c4ccc(-c5cnon5)cc4)c3n2)C1 [(1R,3R)-3-[[3-bromo-1-[4-(1,2,5-oxadiazol-3-yl)phenyl]pyrazolo[3,4-d]pyrimidin-6-yl]amino]-N,1-dimethyl-cyclopentane-carboxamide]"
< 25 nM,–,"CNC(=O)[C@]1(C)CC[C@@H](Nc2ncc3c(Br)nn(-c4cc([C@@H](C)CO)c5ncccc5c4)c3n2)C1 [(1R,3R)-3-[[3-bromo-1-[8-[(1R)-2-hydroxy-1-methyl-ethyl]-6-quinolyl]pyrazolo[3,4-d]pyrimidin-6-yl]amino]-N,1-dimethyl-cyclo-pentanecarboxamide]"
< 25 nM,–,"CNC(=O)[C@]1(CCCOC)CC[C@@H](Nc2ncc3c(Br)nn(-c4cc(F)c5ncccc5c4)c3n2)C1 [(1S,3R)-3-[[3-bromo-1-(8-fluoro-6-quinolyl)pyrazolo[3,4-d]pyrimidin-6-yl]amino]-1-(3-methoxypropyl)-N-methyl-cyclopentane-carboxamide]"
25 to 200 nM,–,"COCCNC(=O)[C@@H]1CC[C@@H](Nc2ncc3c(Br)nn(-c4cc(Cl)c5ncccc5c4)c3n2)C1 [(1R,3R)-3-((3-bromo-1-(8-chloroquinolin-6-yl)-1H-pyrazolo[3,4-d]pyrimidin-6-yl)amino)-N-(2-methoxyethyl)cyclopentane-1-carboxamide]"
25 to 200 nM,–,"CNC(=O)[C@]1(C)CC[C@@H](Nc2ncc3c(Br)nn(-c4ccc(-c5ncco5)c(NC(=O)CC#N)c4)c3n2)C1 [(1R,3R)-3-[[3-bromo-1-[3-[(2-cyanoacetyl)amino]-4-oxazol-2-yl-phenyl]pyrazolo [3,4-d]pyrimidin-6-yl]amino]-N,1-dimethyl-cyclopentanecarboxamide]"
25 to 200 nM,–,"CNC(=O)[C@]1(C)CC[C@@H](Nc2ncc3c(Br)nn(-c4ccc(-c5nnc(C)s5)c(OCS(C)(=O)=O)c4)c3n2)C1 [(1R,3R)-3-[[3-bromo-1-[3-(methylsulfonyl-methoxy)-4-(5-methyl-1,3,4-thiadiazol-2-yl)phenyl]pyrazolo[3,4-d]pyrimidin-6-yl]amino]-N,1-dimethyl-cyclopentane-carboxamide]"
25 to 200 nM,–,"CNC(=O)[C@]1(C)CC[C@@H](Nc2ncc3c(Br)nn(-c4ccc5ncc(C(C)(C)O)cc5c4)c3n2)C1 [(1R,3R)-3-[[3-bromo-1-[3-(1-hydroxy-1-methyl-ethyl)-6-quinolyl]pyrazolo[3,4-d]pyrimidin-6-yl]amino]-N,1-dimethyl-cyclopentanecarboxamide]"
< 25 nM,–,"N#Cc1cc(-n2nc(Br)c3cnc(N[C@@H]4CC[C@@H](C(=O)N[C@H]5CCNC5)C4)nc32)cc2cccnc12 [(1R,3R)-3-((3-bromo-1-(8-cyanoquinolin-6-yl)-1H-pyrazolo[3,4-d]pyrimidin-6-yl)amino)-N-((S)-pyrrolidin-3-yl)cyclopentane-1-carboxamide]"
25 to 200 nM,–,"CNC(=O)C1(C)CC[C@@H](Nc2ncc3c(Br)nn(-c4ccc(-c5noc(C)n5)cc4)c3n2)C1 (stereo partly drawn) [(3R)-3-[[3-bromo-1-[4-(5-methyl-1,2,4-oxadiazol-3-yl)phenyl]pyrazolo[3,4-d]pyrimidin-6-yl]amino]-N,1-dimethyl-cyclopentanecarboxamide]"
25 to 200 nM,–,"CNC(=O)[C@]1(C)CC[C@@H](Nc2ncc3c(Br)nn(-c4ccc(-c5nnc(C(C)(C)N)o5)c(F)c4)c3n2)C1 [(1R,3R)-3-[[1-[4-[5-(1-amino-1-methyl-ethyl)-1,3,4-oxadiazol-2-yl]-3-fluoro-phenyl]-3-bromo-pyrazolo[3,4-d]pyrimidin-6-yl]amino]-N,1-dimethyl-cyclopentanecarboxamide]"
25 to 200 nM,–,O=C(NC1CCCN(CCF)C1)[C@@H]1CC[C@@H](Nc2ncc3c(Br)nn(-c4cc(F)c5ncccc5c4)c3n2)C1 (mixture of isomers)
25 to 200 nM,–,N#Cc1cc(-n2nc(Br)c3cnc(N[C@@H]4CC[C@@H](C(=O)N=S5(=O)CCNCC5)C4)nc32)cc2cccnc12
25 to 200 nM,–,"Fc1cc(-n2nc(Br)c3cnc(NC4COC5(CCNCC5)C4)nc32)cc2cccnc12 (stereo not shown) [N-[3-bromo-1-(8-fluoro-6-quinolyl)pyrazolo [3,4-d]pyrimidin-6-yl]-1-oxa-8-azaspiro[4.5] decan-3-amine]"
500 to 1000 nM,–,"O=C(O)C12CCC(Nc3ncc4c(Br)nn(-c5ccc6ncccc6c5)c4n3)(C1)C2 [4-((3-bromo-1-(quinolin-6-yl)-1H-pyrazolo [3,4-d]pyrimidin-6-yl)amino)bicyclo[2.1.1] hexane-1-carboxylic acid]"
25 to 200 nM,–,"CC1(C(=O)N2CCC(F)(C#N)C2)CC[C@@H](Nc2ncc3c(Br)nn(-c4cc(F)c5ncccc5c4)c3n2)C1 (stereo partly drawn) [1-[(3R)-3-[[3-bromo-1-(8-fluoro-6-quinolyl)pyrazolo[3,4-d]pyrimidin-6-yl]amino]-1-methyl-cyclopentanecarbonyl]-3-fluoro-pyrrolidine-3-carbonitrile]"

Structure (SMILES),IC50 [1],"IC50 (GCN2 biochemical IC50, 4 nM GCN2, 2 μM ATP, 80 nM GFP-eIF2α, 90 min RT, read-out: GCN2 activity)"
Cc1nnc(-c2ccc(-n3nc(Br)c4cnc(N[C@@H]5CC[C@@]6(CCNC6=O)C5)nc43)cc2)s1,25 to 200 nM,–
CNC(=O)[C@]1(C)CC[C@@H](Nc2ncc3c(Br)nn(-c4ccc(-c5nnc(C(C)(C)O)s5)cc4)c3n2)C1,25 to 200 nM,–
CNC(=O)[C@]1(C)CC[C@@H](Nc2ncc3c(Br)nn(-c4ccc5nc(N)ncc5c4)c3n2)C1,25 to 200 nM,–
